Measurements taken from US6383745B1, “Methods of screening for anti-microbial utilizing aarC and compositions thereof” (priority 1997, dated 2002).

What was measured:
P. stuartii = conditions: cited from earlier work; for resistance rates being reported: P. stuartii, first- and second-generation cephalosporins susceptible to its β-lactamases
P. stuartii PR500 = assay: Level of aminoglycoside resistance of strain PR500; assay type: cell-based, Providencia stuartii; conditions: PR500 (PR50 containing pR401 and pACYC184.aarG)
Protocol: Therefore, strain PR500, which is a derivative of the wild-type P. stuartii PR50 [Rather, P. et al., J. Bacteriol. 175:6492-6498 (1993)], was used. PR500 was generated by introducing into PR50 both pR401 (aac(2′)-lacZ) and pACYC184.aarG, a compatible pACYC184 derivative containing the aarG gene. PR500 forms white colonies on plates containing X-gal and has levels of aminoglycoside resistance to 4 μg/ml of gentamicin. Selection of mutants was achieved by plating approximately 10^8 cells of PR500 on LB plates containing 15 μg/ml of gentamicin and X-gal (to select and identify regulatory mutants), ampicillin (150 μg/ml) to maintain pR401 and chloramphenicol (100 μg/ml) to maintain pACYC184.aarG. As observed previously, colonies arose at a frequency of […] [Rather, P. et al., J. Bacteriol. 175:6492-6498 (1993)]. […] While not limiting the present invention to any particular mechanism, these colonies presumably resulted from mutations in a trans-acting regulator of aac(2′)-la since expression of both the chromosomal copy of aac(2′)-la and the plasmid encoded aac(2′)-lacZ fusion were increased. One class of mutants which formed small blue colonies was identified and a representative isolate, PR60, was characterized. Introduction by electroporation (Gene Pulser, Biorad) of the previously cloned aarA, aarB, and aarD genes [Macinga, D. R. et al., Mol. Microbiol. […]

Compound	resistance rates being reported (P. stuartii)	proportions of P. stuartii resistant (P. stuartii; both in wards where the drug is widely used and in others (e.g., geriatric wards) where it was not used)	levels of aminoglycoside resistance (P. stuartii PR500)
CC1=C(C(=O)O)N2C(=O)[C@@H](NC(=O)[C@H](N)c3ccccc3)[C@H]2SC1 [cephalexin]	100%		
gentamicin		80-100%	4 µg/mL
CC(=O)OCC1=C(C(=O)O)N2C(=O)[C@@H](NC(=O)Cc3cccs3)[C@H]2SC1 [cephalothin]	97%		
Cc1nnc(SCC2=C(C(=O)O)N3C(=O)[C@@H](NC(=O)Cn4cnnn4)[C@H]3SC2)s1 [cefazolin]	94%		
O=C(Cc1cccs1)N[C@@H]1C(=O)N2C(C(=O)[O-])=C(C[n+]3ccccc3)CS[C@H]12 [cephaloridine]	82%		
